From patent US12257284B2, “Lantibiotics, lantibiotic-producing bacteria, compositions and methods of production and use thereof” (MEMORIAL SLOAN-KETTERING CANCER CENTER, priority 2017, dated 2025) come the findings set out here.

Non-standard residues stand in square brackets, D forms with d. No end group written: not given here. Dhb = C/C=C(\N)C(=O)O; Dha = C=C(N)C(=O)O

Test [1] deals with VRE. The experiment in a line: VRE cultured in cecal supernatant of mice colonized with B. producta strains. It counts as cell-based, vancomycin-resistant Enterococcus. To be noted: cecal content 7 days post-transplant, 100 mg/mL, filtered; VRE 10^3 CFU/mL, 6 hours; FIG. 20. The protocol: 6-8 week old, C57BL/6 mice were administered ampicillin (0.5 g/L) in the drinking water for 5 days, and subsequently orally gavaged with a bacterial consortia (10^7 CFU per bacterial isolate). Bacterial consortia for oral gavage were prepared by individually culturing the B. producta Caballero strain, or the B. producta Honda strain, on Columbia base medium (agar, peptones, cornstarch) plus 5% sheep blood agar plates, anaerobically at 37° C. overnight. Each isolate was subsequently harvested and resuspended in reduced phosphate buffered saline (PBS) to a final concentration of 10^8 CFU/mL. 7 days post-transplant, cecal content was harvested and resuspended in PBS to a final concentration of 100 mg/mL. Cecal supernatant was collected by filtration through a 0.22 μm filter. VRE inoculated at 10^3 CFU/mL in the cecal supernatant and incubated at 37° C. aerobically. VRE was cultured for 6 hours and quantitated.

Test [2] deals with VRE. The test is described as follows: VRE cultured with ammonium sulfate precipitated, dialyzed B. producta protein, VRE CFU quantitated. In kind it is cell-based, vancomycin-resistant Enterococcus. The protocol:
10^7 CFU/mL B. producta was cultured for 24 hours anaerobically at 37° C. in BHIS. The culture supernatant was filtered through a 0.22 μm filter. Ammonium sulfate was added to the filtered culture supernatant at varying concentrations to precipitate proteins. Precipitated proteins were resolubilized in phosphate buffered saline (PBS) (2 mg/mL) and dialyzed. The dialyzed protein was returned to the original culture volume with fresh culture medium and samples were innoculated with 10^3 CFU/mL VRE and cultured for 6 or 24 hours anaerobically at 37° C. […] 10^7 CFU/mL B. producta was cultured for 24 hours anaerobically at 37° C. in BHIS. The culture supernatant was filtered through a 0.22 μm filter. Ammonium sulfate was added to the filtered culture supernatant at varying concentrations to precipitate proteins. Precipitated proteins were resolubilized in phosphate buffered saline (PBS) (2 mg/mL) and dialyzed (the dialyzed protein was returned to the original culture volume with PBS) and samples were innoculated with 10^3 CFU/mL VRE and cultured for 6 or 24 hours anaerobically at 37° C.
10^7 CFU/mL B. producta was cultured for 24 hours anaerobically at 37° C. in BHIS. The culture supernatant was filtered through a 0.22 μm filter. 45% ammonium sulfate was added to the filtered culture supernatant to precipitate proteins. The precipitate was resolubilized in PBS (2 mg/mL), then dialyzed. The dialyzed protein was incubated with Proteinase K (1 mg/mL) for 1 hour at 37° C. These conditions are sufficient to completely digest BSA at a concentration of 100 μg/m, as evidenced by the […] in gel electrophoresis. The dialyzed protein/proteinase K solution was returned to its original volume in fresh culture medium and inoculated with 10^3 CFU/mL VRE the cultured for 6 or 24 hours anaerobically at 37° C.
10^7 CFU/mL B. producta was cultured for 24 hours anaerobically at 37° C. in BHIS. The culture supernatant was filtered through a 0.22 μm filter. 45% ammonium sulfate was added to the filtered culture supernatant to precipitate proteins. The precipitate was resolubilized in PBS (2 mg/mL), then dialyzed. The dialyzed protein was incubated at 100° C. for ten minutes. The heated, dialyzed protein solution was returned to its original volume in fresh culture medium and inoculated with 10^3 CFU/mL VRE the cultured for 6 or 24 hours anaerobically at 37° C.
10^7 CFU/mL B. producta was cultured for 24 hours anaerobically at 37° C. in BHIS. The culture supernatant was filtered through a 0.22 μm filter. Ammonium sulfate was added to the filtered culture supernatant at varying concentrations to precipitate proteins. […] Fecal pellets were collected 0, 5, 10 days after bacterial consortia transplant, and VRE was quantitated.

For test [3], the system named is VRE. The experiment in a line: Microscopy of VRE cultured with B. producta factor. Conditions: 10^8 CFU/mL VRE, 24 hours. In kind it is cell-based, vancomycin-resistant Enterococcus. The protocol: 10^7 CFU/mL B. producta was cultured for 24 hours anaerobically at 37° C. in BHIS. The culture supernatant was filtered through a 0.22 μm filter. Ammonium sulfate was added to the filtered culture supernatant at varying concentrations to precipitate proteins. Precipitated proteins were resolubilized in phosphate buffered saline (PBS) (2 mg/mL) and dialyzed. The dialyzed protein was returned to the original culture volume with supplemented PBS (the dialyzed protein was returned to the original culture volume with PBS) and samples were innoculated with 10^8 CFU/mL VRE and cultured for 24 hours anaerobically at 37° C. Bacteria were fixed onto slides for microscopy.

For the next test, the system named is gram-positive bacteria. The experiment in a line: Minimum inhibitory concentration by serial dilution against gram-positive bacterial strains. To be noted: dialyzed protein serially diluted in BHIS, 10^5 CFU/mL bacteria, 24 hours; FIG. 35. It counts as cell-based. The protocol:
10^7 CFU/mL B. producta Caballero strain or Honda strain was cultured for 24 hours in BHIS anaerobically at 37° C. The culture supernatant was filtered through a 0.22 μm filter. Ammonium sulfate was added to the filtered culture supernatant at varying concentrations to precipitate proteins. Precipitated proteins were resolubilized in water (5 mg/mL) and dialyzed. The dialyzed protein or nisin (1:2) were serially diluted with fresh BHIS across a row of wells in a 96 well plate per gram-positive bacteria strain. 10^5 CFU/mL of various gram-positive bacterial strains indicated in FIG. 35 were cultured for 24 hours anaerobically at 37° C. The minimum inhibitory concentration (highest dilution at which gram-positive bacteria growth was inhibited) was thus identified.

Another test deals with L. monocytogenes. The test is described as follows: Spectrum: bacterial survival with B. producta culture extract. It counts as cell-based. Conditions: greater than 100 kDa concentrated supernatant; 6, 24 or 48 hours; FIG. 34. As for the experimental part:
(§1) 10^7 CFU/mL B. producta was cultured for 0, 6, 24 hours in BHIS anaerobically at 37° C. The culture supernatant at 0, 6, and 24 hours was filtered through a 0.22 μm filter, then concentrated by ultrafiltration with a molecular weight cut off greater than 100 kDa. The concentrated culture supernatant was then diluted to the original volume with fresh BHIS culture medium. 10^3 CFU/mL VRE, B. producta, C. bolteae, P. distasonis, B. sartorii, C. difficile, K pneumoniae, E. coli, S. aureus, E. faecalis, E. faecium, or L monocytogenes were cultured for 6, 24, or 48 hours anaerobically at 37° C.

The next test has as its system E. faecalis. The description is as above. Conditions: greater than 100 kDa concentrated supernatant; 6, 24 or 48 hours; FIG. 34. In kind it is cell-based. The protocol: as §1
The test system of another test is E. coli. Described as above. It counts as cell-based. Conditions: greater than 100 kDa concentrated supernatant; 6, 24 or 48 hours; FIG. 34. The protocol:
as §1

Another test relates to K. pneumoniae. The description is as above. It counts as cell-based. Conditions: greater than 100 kDa concentrated supernatant; 6, 24 or 48 hours; FIG. 34. As for the experimental part: as §1
A further test has as its system S. aureus. The description is as above. In kind it is cell-based. To be noted: greater than 100 kDa concentrated supernatant; 6, 24 or 48 hours; FIG. 34. The protocol:
as §1

The subject of the next test is E. faecium. The description is as above. It counts as cell-based. Conditions: greater than 100 kDa concentrated supernatant; 6, 24 or 48 hours; FIG. 34. As for the experimental part:
as §1

For a further test, the system named is C. difficile. The test is described as above. To be noted: greater than 100 kDa concentrated supernatant; 6, 24 or 48 hours; FIG. 34. It counts as cell-based. The protocol: as §1
The subject of a further test is P. distasonis. The description is as above. Conditions: greater than 100 kDa concentrated supernatant; 6, 24 or 48 hours; FIG. 34. In kind it is cell-based. As for the experimental part: as §1
For another test, the system named is B. producta. The description is as above. It counts as cell-based. To be noted: greater than 100 kDa concentrated supernatant; 6, 24 or 48 hours; FIG. 34. As for the experimental part: as §1
The next test has as its system B. sartorii. Described as above. In kind it is cell-based. To be noted: greater than 100 kDa concentrated supernatant; 6, 24 or 48 hours; FIG. 34. The protocol:
as §1

On to “B. producta factor: VRE-inhibiting factor secreted by B. producta, a lantibiotic according to the disclosure (SEQ. ID. No.: 3) (I[Dhb][Dha]I[Dha]LA[Dhb]PGAK[Dhb]GALMGAV[Dhb]GILM[Dhb]APVQ[Dhb]A[Dhb]AGAQI[Dhb]GK; not fully specified; also: lantibiotic (lanthionine bridges not given here))”, for which, in the test with VRE [1], the “VRE growth in cecal supernatant of colonized mice” value is listed as “inhibits VRE”. In addition, in the test on VRE [2] (10^5 CFU/mL VRE, 6-120 hours in PBS, FIG. 18), the “Number of VRE (CFU) over time in PBS (bactericidal effect)” value is reported as “permanent decline in the number of VRE”. The “VRE inhibition after boiling” value with VRE [2] (45% ammonium sulfate precipitate, 100° C. for ten minutes, FIG. 13) is “able to inhibit VRE”. Further, the “VRE inhibition after Proteinase K digestion” value in the test with VRE [2] (45% ammonium sulfate precipitate, Proteinase K 1 mg/mL, 1 hour at 37° C., FIG. 12) was “able to inhibit VRE”. Moreover, the “VRE inhibition by ammonium sulfate precipitate” value with VRE [2] (precipitate resolubilized, dialyzed, returned to volume with PBS, 6 or 24 hours, FIG. 11) is on record as “inhibited VRE”. Moreover, the “Phase contrast microscopy of VRE versus control” value in the test on VRE [3] (FIG. 21) was “smaller, less numerous, more frequently in a single coccus arrangement and surrounded by more cellular debris”. Besides, in the test with VRE [3] (FIG. 22), the “Fluorescence microscopy of VRE (SYTO9 / propidium iodide) versus control” value is recorded as “less viable”. The “Gram stain light microscopy of VRE versus control” value in the test on VRE [3] (FIG. 23) is reported as “generally lacked purple staining”. The “Inhibition of various gram-positive bacterial strains (minimum inhibitory concentration, highest dilution)” value with gram-positive bacteria was “broadly inhibits gram-positive bacteria”. In addition, the “Inhibition of L. monocytogenes (survival relative to negative control extract)” value in the test on L. monocytogenes is “inhibited”. For the same substance, the “Inhibition of E. faecalis (survival relative to negative control extract)” value in the test with E. faecalis is listed as “inhibited”. Moreover, the “Inhibition of E. coli (survival relative to negative control extract)” value with E. coli is reported as “not”. In the test with K. pneumoniae, the “Inhibition of K. pneumoniae (survival relative to negative control extract)” value is on record as “not”. Moreover, in the test on S. aureus, the “Inhibition of S. aureus (survival relative to negative control extract)” value is “inhibited”. Further, the “Inhibition of E. faecium (survival relative to negative control extract)” value in the test with E. faecium was “inhibited”. Further, the “Inhibition of C. difficile (survival relative to negative control extract)” value with C. difficile is given as “not”. For the same substance, the “Inhibition of P. distasonis (survival relative to negative control extract)” value in the test on P. distasonis is reported as “not”. Also, the “Inhibition of B. producta (survival relative to negative control extract)” value in the test on B. producta is reported as “not”. In addition, the “Inhibition of B. sartorii (survival relative to negative control extract)” value with B. sartorii was “not”.
